From ChEMBL document CHEMBL3779788, “Facile synthesis of 1,3-thiazolidin-4-ones as antitubercular agents” (Bioorg Med Chem Lett, 2016)
Values after ≈ are worked out from the molar mass of the structure shown.

Tests used:
[1] = test system: Mycobacterium bovis BCG str. ATCC 35743; assay: Antitubercular activity against dormant Mycobacterium bovis BCG ATCC 35743 assessed as growth inhibition at 3 ug/mL by NR assay; type: functional
[2] = test system: Mycobacterium bovis BCG str. ATCC 35743; assay: Antitubercular activity against dormant Mycobacterium bovis BCG ATCC 35743 assessed as growth inhibition at 10 ug/mL by NR assay; type: functional
[3] = test system: Mycobacterium tuberculosis; assay: Antitubercular activity against dormant Mycobacterium tuberculosis H37Ra assessed as growth inhibition at 30 ug/mL by XTT reduction menadione assay; type: functional; conditions: read-out: GI
[4] = test system: Mycobacterium tuberculosis; assay: Antitubercular activity against dormant Mycobacterium tuberculosis H37Ra assessed as growth inhibition at 10 ug/mL by XTT reduction menadione assay; type: functional; conditions: read-out: GI
[5] = test system: Mycobacterium tuberculosis; assay: Antitubercular activity against dormant Mycobacterium tuberculosis H37Ra assessed as growth inhibition at 3 ug/mL by XTT reduction menadione assay; type: functional; conditions: read-out: GI
[6] = test system: Mycobacterium bovis BCG str. ATCC 35743; assay: Antitubercular activity against dormant Mycobacterium bovis BCG ATCC 35743 assessed as growth inhibition at 30 ug/mL by NR assay; type: functional
[7] = (§1) Antitubercular activity against dormant Mycobacterium bovis BCG ATCC 35743 by NR assay; type: functional, Mycobacterium bovis BCG str. ATCC 35743
[8] = test system: Mycobacterium bovis BCG str. ATCC 35743; assay: as §1; type: functional
[9] = test system: Mycobacterium tuberculosis; assay: Antitubercular activity against dormant Mycobacterium tuberculosis H37Ra by XTT reduction menadione assay; type: functional, organism-based
[10] = Cytotoxicity against human MCF7 cells at 30 ug/mL by MTT assay; type: cell-based; conditions: read-out: INH
[11] = Cytotoxicity against human MCF7 cells at 10 ug/mL by MTT assay; type: cell-based; conditions: read-out: INH
[12] = Cytotoxicity against human MCF7 cells at 3 ug/mL by MTT assay; type: cell-based; conditions: read-out: INH
[13] = Cytotoxicity against human A549 cells at 30 ug/mL by MTT assay; type: cell-based; conditions: read-out: INH
[14] = Cytotoxicity against human A549 cells at 10 ug/mL by MTT assay; type: cell-based; conditions: read-out: INH
[15] = Cytotoxicity against human A549 cells at 3 ug/mL by MTT assay; type: cell-based; conditions: read-out: INH
[16] = Cytotoxicity against human HCT116 cells at 30 ug/mL by MTT assay; type: cell-based, HCT-116; conditions: read-out: INH
[17] = Cytotoxicity against human HCT116 cells at 10 ug/mL by MTT assay; type: cell-based, HCT-116; conditions: read-out: INH
[18] = Cytotoxicity against human HCT116 cells at 3 ug/mL by MTT assay; type: cell-based, HCT-116; conditions: read-out: INH
[19] = test system: Escherichia coli; assay: Antibacterial activity against Escherichia coli after 18 hrs by broth dilution method; type: functional, organism-based
[20] = test system: Pseudomonas; assay: Antibacterial activity against Pseudomonas after 18 hrs by broth dilution method; type: functional, organism-based
[21] = test system: Staphylococcus aureus; assay: Antibacterial activity against Staphylococcus aureus after 18 hrs by broth dilution method; type: functional, organism-based
[22] = test system: Bacillus subtilis; assay: Antibacterial activity against Bacillus subtilis after 18 hrs by broth dilution method; type: functional, organism-based

Structure (SMILES)	growth inhibition (GI) [1] [%]	growth inhibition (GI) [2] [%]	inhibition of growth at 30 µg/mL [3] [%]	inhibition of growth at 10 µg/mL [4] [%]	inhibition of growth at 3 µg/mL [5] [%]	growth inhibition (GI) [6] [%]	IC50 [7] [µg/mL]	IC90 [8] [µg/mL]	IC50 [9] [µg/mL]	IC90 [9] [µg/mL]	cytotoxicity at 30 ug/mL [10] [%]	cytotoxicity at 10 ug/mL [11] [%]	cytotoxicity at 3 ug/mL [12] [%]	cytotoxicity at 30 ug/mL [13] [%]	cytotoxicity at 10 ug/mL [14] [%]	cytotoxicity at 3 ug/mL [15] [%]	cytotoxicity at 30 ug/mL [16] [%]	cytotoxicity at 10 ug/mL [17] [%]	cytotoxicity at 3 ug/mL [18] [%]	further results
O=C1CSC(c2ccc([N+](=O)[O-])cc2)N1c1ccccc1 (stereo unspecified)	17.8	12.5	-8.8	-30.4	-17.1	14.4	> 30	> 30	> 30	> 30	52.6	49.9	47	8.8	6.7	0.3	29.3	9	-11.5	
O=C1CSC(c2ccc(Cl)cc2)N1c1ccc(Cl)cc1 (stereo unspecified)	-20.2	0	-19.8	24.1	11.8	-0.8	> 30	> 30	> 30	> 30	14.8	16.6	14.5	0	0	0	15.9	1.3	-8.1	
Cc1ccc(C2SCC(=O)N2c2ccccc2)cc1 (stereo unspecified)	2	0.2	17.8	31	12	16.6	> 30	> 30	> 30	> 30	40.7	16.9	0	27.8	-12.6	-10.3	-9.8	-11.9	-25.8	
O=C1CSC(c2ccc(F)cc2)N1c1ccc(Cl)cc1 (stereo unspecified)	-3.2	-3.8	30.2	-14.6	8.8	-1.3	> 30	> 30	> 30	> 30	43.7	38.1	32.2	4.9	0	-7	50.4	18.6	9.4	
O=C1CSC(c2ccc(O)cc2)N1c1ccc(Cl)cc1 (stereo unspecified)	6	-15.5	16.3	10.3	29.8	-2.2	> 30	> 30	> 30	> 30	43.4	32.2	24.9	0	0	0	20.1	10.4	4.3	
O=C1CSC(c2ccccc2)N1c1ccc(Br)cc1 (stereo unspecified)	-14	-2.7	-0.7	-27.5	-6.9	-35.7	> 30	> 30	> 30	> 30	23.8	9.4	-2.6	0	0	0	22	8.2	-7.3	
Cc1ccc(N2C(=O)CSC2c2ccccc2)cc1 (stereo unspecified)	61.6	4.5	-0.7	-24.3	-21.6	39.7	> 30	> 30	> 30	> 30	29.2	8.4	-40.6	-15.9	0	0	21.6	20.5	16.1	
O=C1CSC(c2ccc(Cl)cc2)N1c1ccc(F)cc1 (stereo unspecified)	-2.1	-9.9	-45.6	-3.2	8.8	-1	> 30	> 30	> 30	> 30	26.1	11.5	12.4	0	0	0	34.5	0.2	-6.2	
COc1ccc(C2SCC(=O)N2c2ccc(Cl)cc2)cc1 (stereo unspecified)	5.3	-0.7	9.5	18	37.6	1.6	> 30	> 30	> 30	> 30	38.6	0	0	0	0	-4	12	-2.3	-2.9	
NC[C@H]1O[C@H](O[C@H]2[C@H](O)[C@@H](O[C@H]3O[C@H](CO)[C@@H](O)[C@H](N)[C@H]3O)[C@H](N)C[C@@H]2N)[C@H](O)[C@@H](O)[C@@H]1O [KANAMYCIN]																				IC50 [19]: 1.62 µg/mL (≈ 3.34 µM); MIC [19]: 0.67 µg/mL (≈ 1.38 µM); IC50 [20]: 0.49 µg/mL (≈ 1.01 µM); MIC [20]: 0.012 µg/mL (≈ 0.0248 µM); IC50 [21]: > 30 µg/mL; MIC [21]: 16 µg/mL (≈ 33 µM); IC50 [22]: 1.35 µg/mL (≈ 2.79 µM); MIC [22]: 0.25 µg/mL (≈ 0.516 µM)
CC1(C)S[C@@H]2[C@H](NC(=O)[C@H](N)c3ccccc3)C(=O)N2[C@H]1C(=O)O [AMPICILLIN]																				IC50 [19]: 1.46 µg/mL (≈ 4.18 µM); MIC [19]: 0.41 µg/mL (≈ 1.17 µM); IC50 [20]: 4.36 µg/mL (≈ 12.5 µM); MIC [20]: 2.83 µg/mL (≈ 8.1 µM); IC50 [21]: 1 µg/mL (≈ 2.86 µM); MIC [21]: 0.12 µg/mL (≈ 0.343 µM); IC50 [22]: 10.3 µg/mL (≈ 29.5 µM); MIC [22]: 5.89 µg/mL (≈ 16.9 µM)
Cc1ccc(N2C(=O)CSC2c2ccc([N+](=O)[O-])cc2)cc1 (stereo unspecified)	-2	-6.1	14.4	-5.4	21.2	-7.1	> 30	> 30	> 30	> 30	45.6	38.8	34.6	-10.3	0	-11.3	-12.4	-14.6	-16.1	
NNC(=O)c1ccncc1 [ISONIAZID]							0.0023 (≈ 0.0168 µM)	0.045 (≈ 0.328 µM)		0.075 (≈ 0.547 µM)										
Cc1ccc(C2SCC(=O)N2c2ccc(C)cc2)cc1 (stereo unspecified)	-12.5	-1.2	-27.4	-26.4	-18.5	-1.9	> 30	> 30	> 30	> 30	19.6	16.4	-9.2	-13.4	0	8.6	45	16.7	9.7	
CO[C@H]1/C=C/O[C@@]2(C)Oc3c(C)c(O)c4c(O)c(c(/C=N/N5CCN(C)CC5)c(O)c4c3C2=O)NC(=O)/C(C)=C\C=C\[C@H](C)[C@H](O)[C@@H](C)[C@@H](O)[C@@H](C)[C@H](OC(C)=O)[C@@H]1C [RIFAMPIN]							0.0016 (≈ 0.00194 µM)	0.041 (≈ 0.0498 µM)		0.043 (≈ 0.0523 µM)										
